In brackets after ≈: the same amount, converted by molar mass.
Assays:
Type in all cases: functional
Candida tropicalis = assay: Antimicrobial activity against Candida tropicalis CGMCC2.3967 after 48 hrs by twofold serial microdilution method; details: CGMCC2.3967, 48 h
Candida albicans = assay: Antimicrobial activity against Candida albicans CGMCC2.2086 after 48 hrs by twofold serial microdilution method; details: CGMCC2.2086, 48 h
Aspergillus niger = assay: Antimicrobial activity against Aspergillus niger CGMCC3.316 after 48 hrs by twofold serial microdilution method; details: CGMCC3.316, 48 h
Pseudomonas fluorescens = assay: Antimicrobial activity against Pseudomonas fluorescens CGMCC1.1828 after 24 hrs by twofold serial microdilution method; details: CGMCC1.1828, 24 h
Staphylococcus aureus = assay: Antimicrobial activity against Staphylococcus aureus CGMCC1.1361 after 24 hrs by twofold serial microdilution method; details: CGMCC1.1361, 24 h
Escherichia coli = assay: Antimicrobial activity against Escherichia coli CGMCC1.1571 after 24 hrs by twofold serial microdilution method; details: CGMCC1.1571, 24 h
Bacillus subtilis = assay: Antimicrobial activity against Bacillus subtilis CGMCC1.1162 after 24 hrs by twofold serial microdilution method; details: CGMCC1.1162, 24 h

| SMILES | MIC (Candida tropicalis) [µg/mL] | MIC (Candida albicans) [µg/mL] | MIC (Aspergillus niger) [µg/mL] | MIC (Pseudomonas fluorescens) [µg/mL] | MIC (Staphylococcus aureus) [µg/mL] | MIC (Escherichia coli) [µg/mL] | MIC (Bacillus subtilis) [µg/mL] |
| --- | --- | --- | --- | --- | --- | --- | --- |
| CCCCN(CCCC)CCn1c2c(c3ccccc31)[C@H]1[C@](C)(C(=O)OC)CCC[C@]1(C)c1ccc(C(C)C)cc1-2 | 31.2 (≈ 56 µM) | 31.2 (≈ 56 µM) | 62.5 (≈ 112 µM) | 15.6 (≈ 28 µM) | 15.6 (≈ 28 µM) | 31.2 (≈ 56 µM) | 15.6 (≈ 28 µM) |
| CCCN(CCC)CCn1c2c(c3ccccc31)[C@H]1[C@](C)(C(=O)OC)CCC[C@]1(C)c1ccc(C(C)C)cc1-2 | 62.5 (≈ 118 µM) | 31.2 (≈ 59 µM) | > 100 | 31.2 (≈ 59 µM) | 31.2 (≈ 59 µM) | 31.2 (≈ 59 µM) | 15.6 (≈ 29.5 µM) |
| COC(=O)[C@]1(C)CCC[C@]2(C)c3ccc(C(C)C)cc3-c3c(c4ccccc4n3CCN3CCOCC3)[C@@H]12 | 31.2 (≈ 60.6 µM) | 62.5 (≈ 121 µM) | 62.5 (≈ 121 µM) | 31.2 (≈ 60.6 µM) | 7.8 (≈ 15.2 µM) | 31.2 (≈ 60.6 µM) | 15.6 (≈ 30.3 µM) |
| COC(=O)[C@]1(C)CCC[C@]2(C)c3ccc(C(C)C)cc3-c3c(c4ccccc4n3CCN3CCN(C)CC3)[C@@H]12 | 7.8 (≈ 14.8 µM) | 7.8 (≈ 14.8 µM) | 7.8 (≈ 14.8 µM) | 7.8 (≈ 14.8 µM) | 1.9 (≈ 3.6 µM) | 15.6 (≈ 29.6 µM) | 3.9 (≈ 7.39 µM) |
| COC(=O)[C@]1(C)CCC[C@]2(C)c3ccc(C(C)C)cc3-c3c(c4ccccc4n3CCn3ccnn3)[C@@H]12 | > 100 | > 100 | > 100 | 31.2 (≈ 62.8 µM) | 31.2 (≈ 62.8 µM) | 15.6 (≈ 31.4 µM) | 7.8 (≈ 15.7 µM) |
| COC(=O)[C@]1(C)CCC[C@]2(C)c3ccc(C(C)C)cc3-c3c(c4ccccc4n3CCNc3ccc(Br)cc3)[C@@H]12 | > 100 | > 100 | > 100 | > 100 | 62.5 (≈ 104 µM) | > 100 | 31.2 (≈ 52 µM) |
| COC(=O)[C@]1(C)CCC[C@]2(C)c3ccc(C(C)C)cc3-c3c(c4ccccc4n3CCn3cnc4ccccc43)[C@@H]12 | 62.5 (≈ 115 µM) | 31.2 (≈ 57.2 µM) | > 100 | 31.2 (≈ 57.2 µM) | 31.2 (≈ 57.2 µM) | 31.2 (≈ 57.2 µM) | 31.2 (≈ 57.2 µM) |
| COC(=O)[C@]1(C)CCC[C@]2(C)c3ccc(C(C)C)cc3-c3c(c4ccccc4n3CCN3CCCC3)[C@@H]12 | > 100 | > 100 | > 100 | > 100 | 62.5 (≈ 125 µM) | > 100 | 31.2 (≈ 62.6 µM) |
| COC(=O)[C@]1(C)CCC[C@]2(C)c3ccc(C(C)C)cc3-c3c(c4ccccc4n3CCn3cnnn3)[C@@H]12 | 62.5 (≈ 126 µM) | 31.2 (≈ 62.7 µM) | > 100 | 15.6 (≈ 31.3 µM) | 31.2 (≈ 62.7 µM) | 31.2 (≈ 62.7 µM) | 7.8 (≈ 15.7 µM) |
| COC(=O)[C@]1(C)CCC[C@]2(C)c3ccc(C(C)C)cc3-c3c(c4ccccc4n3CCN(CCO)CCO)[C@@H]12 | 31.2 (≈ 58.6 µM) | 62.5 (≈ 117 µM) | > 100 | 62.5 (≈ 117 µM) | > 100 | 62.5 (≈ 117 µM) | 62.5 (≈ 117 µM) |
| COC(=O)[C@]1(C)CCC[C@]2(C)c3ccc(C(C)C)cc3-c3c(c4ccccc4n3CCN3CCNCC3)[C@@H]12 | 31.2 (≈ 60.7 µM) | 31.2 (≈ 60.7 µM) | 62.5 (≈ 122 µM) | 15.6 (≈ 30.4 µM) | 15.6 (≈ 30.4 µM) | 15.6 (≈ 30.4 µM) | 7.8 (≈ 15.2 µM) |
| COC(=O)[C@]1(C)CCC[C@]2(C)c3ccc(C(C)C)cc3-c3c(c4ccccc4n3CCNc3ccc([N+](=O)[O-])cc3)[C@@H]12 | 62.5 (≈ 110 µM) | 31.2 (≈ 55.2 µM) | > 100 | 15.6 (≈ 27.6 µM) | 7.8 (≈ 13.8 µM) | 31.2 (≈ 55.2 µM) | 15.6 (≈ 27.6 µM) |
| COC(=O)[C@]1(C)CCC[C@]2(C)c3ccc(C(C)C)cc3C(=O)C[C@@H]12 | > 100 | > 100 | > 100 | 62.5 (≈ 190 µM) | 31.2 (≈ 95 µM) | > 100 | 31.2 (≈ 95 µM) |
| COC(=O)[C@]1(C)CCC[C@]2(C)c3ccc(C(C)C)cc3-c3c(c4ccccc4n3CCN(C)C)[C@@H]12 | > 100 | > 100 | > 100 | 62.5 (≈ 132 µM) | > 100 | > 100 | 62.5 (≈ 132 µM) |
| COC(=O)[C@]1(C)CCC[C@]2(C)c3ccc(C(C)C)cc3-c3c(c4ccccc4n3CCn3c([N+](=O)[O-])cnc3C)[C@@H]12 | 31.2 (≈ 56.2 µM) | 31.2 (≈ 56.2 µM) | > 100 | 7.8 (≈ 14.1 µM) | 1.9 (≈ 3.43 µM) | 7.8 (≈ 14.1 µM) | 0.9 (≈ 1.62 µM) |
| COC(=O)[C@]1(C)CCC[C@]2(C)c3ccc(C(C)C)cc3-c3c(c4ccccc4n3CCNc3ccc(OC)cc3)[C@@H]12 | > 100 | > 100 | > 100 | > 100 | 62.5 (≈ 113 µM) | > 100 | > 100 |
| COC(=O)[C@]1(C)CCC[C@]2(C)c3ccc(C(C)C)cc3-c3c(c4ccccc4n3CCNc3ccc(Cl)cc3)[C@@H]12 | > 100 | 62.5 (≈ 113 µM) | > 100 | 62.5 (≈ 113 µM) | 31.2 (≈ 56.2 µM) | > 100 | 31.2 (≈ 56.2 µM) |
| NCC[C@H](O)C(=O)N[C@@H]1C[C@H](N)[C@@H](O[C@H]2O[C@H](CN)[C@@H](O)[C@H](O)[C@H]2O)[C@H](O)[C@H]1O[C@H]1O[C@H](CO)[C@@H](O)[C@H](N)[C@H]1O.O=S(=O)(O)O | – | – | – | 0.9 | 0.9 | 1.9 | 0.9 |
| CCN(CC)CCn1c2c(c3ccccc31)[C@H]1[C@](C)(C(=O)OC)CCC[C@]1(C)c1ccc(C(C)C)cc1-2 | > 100 | 62.5 (≈ 125 µM) | > 100 | 62.5 (≈ 125 µM) | 62.5 (≈ 125 µM) | > 100 | 31.2 (≈ 62.3 µM) |
| COC(=O)[C@]1(C)CCC[C@]2(C)c3ccc(C(C)C)cc3-c3[nH]c4ccccc4c3[C@@H]12 | > 100 | > 100 | > 100 | 62.5 (≈ 156 µM) | 62.5 (≈ 156 µM) | > 100 | 31.2 (≈ 77.7 µM) |
| CC(=O)N1CCN(c2ccc(OCC3COC(Cn4ccnc4)(c4ccc(Cl)cc4Cl)O3)cc2)CC1 (racemic) [KETOCONAZOLE] | 3.9 (≈ 7.34 µM) | 3.9 (≈ 7.34 µM) | 7.8 (≈ 14.7 µM) | – | – | – | – |
| COC(=O)[C@]1(C)CCC[C@]2(C)c3ccc(C(C)C)cc3-c3c(c4ccccc4n3CCBr)[C@@H]12 | > 100 | > 100 | > 100 | > 100 | 62.5 (≈ 123 µM) | > 100 | 31.2 (≈ 61.4 µM) |
| COC(=O)[C@]1(C)CCC[C@]2(C)c3ccc(C(C)C)cc3-c3c(c4ccccc4n3CCn3ccnc3)[C@@H]12 | > 100 | 62.5 (≈ 126 µM) | > 100 | > 100 | 15.6 (≈ 31.5 µM) | 62.5 (≈ 126 µM) | 31.2 (≈ 62.9 µM) |
| COC(=O)[C@]1(C)CCC[C@]2(C)c3ccc(C(C)C)cc3-c3c(c4ccccc4n3CCNc3ccc(C)cc3)[C@@H]12 | > 100 | > 100 | > 100 | > 100 | > 100 | > 100 | 62.5 (≈ 117 µM) |
| COC(=O)[C@]1(C)CCC[C@]2(C)c3ccc(C(C)C)cc3-c3c(c4ccccc4n3CCN3CCCCC3)[C@@H]12 | 62.5 (≈ 122 µM) | > 100 | > 100 | 62.5 (≈ 122 µM) | 62.5 (≈ 122 µM) | > 100 | 15.6 (≈ 30.4 µM) |
| COC(=O)[C@]1(C)CCC[C@]2(C)c3ccc(C(C)C)cc3-c3c(c4ccccc4n3CCn3ncnn3)[C@@H]12 | > 100 | > 100 | > 100 | 62.5 (≈ 126 µM) | 31.2 (≈ 62.7 µM) | 62.5 (≈ 126 µM) | 31.2 (≈ 62.7 µM) |
